Here are results for two compounds from patent US20220055989A1, “CONDENSED PYRROLES AS NOVEL BROMODOMAIN INHIBITORS” (ALBERT LUDWING UNIVERSITÄT FREIBURG, priority 2018, published 2022).

One experiment addresses T1, PBRM1(2) (Homo sapiens, UniProt Q86U86).
T1 construct: FALZ, PBRM1-BD2, BPRM1-BDS, TAF1-BD2, TAF1L-BD2; host or cells: T7 phage grown in E. coli host derived from BL21
Briefly: Bromodomain assay % Ctrl determination PBRM1(2). Conditions: lower numbers indicate a stronger binding. The protocol: (§1) Compounds that bind the bromodomain prevent its binding to the immobilized ligand thus reducing the amount of protein captured. […] Hits are identified by measuring the amount of bromodomain captured in test versus control samples. Bromodomain assays for % Ctrl determination: T7 phage strains displaying bromodomains were grown in parallel in 24-well blocks in an E. coli host derived from the BL21 strain. E. coli were grown to log-phase and infected with T7 phage from a frozen stock (multiplicity of infection=0.4) and incubated with shaking at 32° C. until lysis (90-150 minutes). The lysates were centrifuged (5,000×g) and filtered (0.2 μm) to remove cell debris. […] The liganded beads were blocked with excess biotin and washed with blocking buffer (SeaBlock (Pierce), 1% BSA, 0.05% Tween 20, 1 mM DTT) to remove unbound ligand and to reduce non-specific phage binding. […] Test compounds were prepared as 1000× stocks in 100% DMSO and subsequently diluted 1:25 in monoethylene glycol (MEG). The compounds were then diluted directly into the assays such that the final concentrations of DMSO and MEG were 0.1% and 2.4%, respectively. All reactions were performed in polypropylene 384-well plates in a final volume of 0.02 ml. […] The bromodomain concentration in the eluates was measured by qPCR. […]

The target of another experiment is T2, FALZ (Homo sapiens, UniProt Q12830).
T2 construct: T7 phage strains displaying bromodomains were grown in parallel; host or cells: T7 phage grown in E. coli host derived from BL21
Kind of experiment: Bromodomain assay % Ctrl determination FALZ. Conditions: lower numbers indicate a stronger binding. The protocol:
as §1

The subject of a further experiment is HL-60 cells. Kind of experiment: GI50 in a culture of HL-60 cells. It counts as cell-based. The conditions noted are these: concentration required to reduce the population of a culture of HL-60 cells by 50%.
The target of another experiment is T3, CECR2 (Homo sapiens, UniProt Q9BXF3).
T3 construct: T7 phage strains displaying bromodomains were grown; host or cells: T7 phage in E. coli derived from BL21
T3 sequence (Q9BXF3 434-538 limits assumed): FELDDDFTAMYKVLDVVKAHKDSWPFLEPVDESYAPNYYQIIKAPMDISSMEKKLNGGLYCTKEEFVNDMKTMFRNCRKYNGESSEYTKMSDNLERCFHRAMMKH
Kind of experiment: Bromodomain assay % Ctrl determination CECR2. The conditions noted are these: lower numbers indicate a stronger binding. The protocol: as §1

The target in another experiment is T4, BRD3(1) (Homo sapiens, UniProt Q15059).
T4 construct: T7 phage strains displaying bromodomains were grown in parallel; made in house; host or cells: T7 phage grown in an E. coli host derived from the BL21 strain
T4 sequence (Q15059 34-140 limits assumed): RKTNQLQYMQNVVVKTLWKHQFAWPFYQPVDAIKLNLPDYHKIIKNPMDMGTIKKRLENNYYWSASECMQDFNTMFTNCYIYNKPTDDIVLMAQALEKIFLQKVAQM
Kind of experiment: Bromodomain assay % Ctrl determination BRD3(1). The conditions noted are these: lower numbers indicate a stronger binding. The protocol:
as §1

In another experiment the target is T5, PBRM1(5) (Homo sapiens, UniProt Q86U86).
T5 construct: T7 phage strains displaying bromodomains were grown in parallel; host or cells: T7 phage grown in E. coli host derived from BL21
T5 sequence (Q86U86 653-763 limits assumed): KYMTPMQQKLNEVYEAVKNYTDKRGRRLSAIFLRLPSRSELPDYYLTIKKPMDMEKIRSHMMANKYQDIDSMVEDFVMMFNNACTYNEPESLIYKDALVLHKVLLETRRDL
Briefly: Bromodomain assay % Ctrl determination PBRM1(5). Conditions: lower numbers indicate a stronger binding. The protocol: as §1

For another experiment, the target named is T6, ATAD2B (Homo sapiens, UniProt Q9ULI0).
T6 construct: T7 phage strains displaying bromodomains were grown in parallel; made in house; host or cells: T7 phage grown in an E. coli host derived from the BL21 strain
T6 sequence (Q9ULI0 951-1066 limits assumed): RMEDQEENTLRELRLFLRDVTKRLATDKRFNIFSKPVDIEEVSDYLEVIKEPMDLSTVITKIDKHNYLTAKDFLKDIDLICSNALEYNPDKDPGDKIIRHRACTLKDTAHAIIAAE
Briefly: Bromodomain assay % Ctrl determination ATAD2B. Conditions: lower numbers indicate a stronger binding. The protocol: as §1

The target in a further experiment is T7, ATAD2A (Homo sapiens, UniProt Q6PL18).
T7 construct: T7 phage strains displaying bromodomains were grown in parallel; made in house; host or cells: T7 phage grown in an E. coli host derived from the BL21 strain
T7 sequence (Q6PL18 980-1092 limits assumed): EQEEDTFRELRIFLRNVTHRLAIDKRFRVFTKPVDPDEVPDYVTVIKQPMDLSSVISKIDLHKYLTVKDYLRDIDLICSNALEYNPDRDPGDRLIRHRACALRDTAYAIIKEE
Kind of experiment: Bromodomain assay % Ctrl determination ATAD2A. The conditions noted are these: lower numbers indicate a stronger binding. The protocol:
as §1

A further experiment concerns the target T8, BRD3(2) (Homo sapiens, UniProt Q15059).
T8 construct: T7 phage strains displaying bromodomains were grown in parallel; made in house; host or cells: T7 phage grown in an E. coli host derived from the BL21 strain
Briefly: Bromodomain assay % Ctrl determination BRD3(2). Conditions: lower numbers indicate a stronger binding. The protocol:
as §1

The target in another experiment is T9, CREBBP (Homo sapiens, UniProt Q92793).
T9 construct: T7 phage strains displaying bromodomains were grown; host or cells: T7 phage in E. coli derived from BL21
T9 sequence (Q92793 1085-1192 limits assumed): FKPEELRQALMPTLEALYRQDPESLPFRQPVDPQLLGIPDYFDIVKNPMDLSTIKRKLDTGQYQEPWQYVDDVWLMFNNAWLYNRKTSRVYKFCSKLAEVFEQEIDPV
Kind of experiment: Bromodomain assay % Ctrl determination CREBBP. The conditions noted are these: lower numbers indicate a stronger binding. The protocol:
as §1

The target in a further experiment is T10, BRD9 (Homo sapiens, UniProt Q9H8M2).
T10 construct: T7 phage strains displaying bromodomains were grown; host or cells: T7 phage in E. coli derived from BL21
T10 sequence (Q9H8M2 136-240 limits assumed): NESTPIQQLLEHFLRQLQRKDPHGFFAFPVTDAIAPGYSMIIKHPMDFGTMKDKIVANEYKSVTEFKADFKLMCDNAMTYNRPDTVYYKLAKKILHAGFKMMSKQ
Briefly: Bromodomain assay % Ctrl determination BRD9. The conditions noted are these: lower numbers indicate a stronger binding. The protocol:
as §1

The next experiment concerns the target T11, TRIM24(PHD, Bromo) (Homo sapiens, UniProt O15164).
T11 construct: T7 phage strains displaying bromodomains were grown in parallel; host or cells: T7 phage grown in E. coli host derived from BL21
Kind of experiment: BROMOscan Kd determination TRIM24(PHD, Bromo.). It counts as binding. The protocol: (§2) Bromodomain profiling was carried out on the basis of BROMOscan™. This platform accounted for the indirect determination of the dissociation constants between 19 bromodomains and the compound of formula (13), by binding competition against a reference immobilized ligand. Compounds that bind the bromodomain prevent its binding to the immobilized ligand thus reducing the amount of protein captured. […] Hits are identified by measuring the amount of bromodomain captured in test versus control samples. Bromodomain assays for Kd determination: T7 phage strains displaying bromodomains were grown in parallel in 24-well blocks in an E. coli host derived from the BL21 strain. E. coli were grown to log-phase and infected with T7 phage from a frozen stock (multiplicity of infection=0.4) and incubated with shaking at 32° C. until lysis (90-150 minutes). The lysates were centrifuged (5,000×g) and filtered (0.2 μm) to remove cell debris. […] Kds were determined using an 11-point 3-fold compound dilution series with one DMSO control point. […] The bromodomain concentration in the eluates was measured by qPCR. […] Most Kds were determined using a compound top concentration=10,000 nM. […] Binding Constants (Kds): Binding constants (Kds) were calculated with a standard dose-response curve using the Hill equation: The Hill Slope was set to −1. […]

In a further experiment the target is T12, TRIM24 (Bromo.) (Homo sapiens, UniProt O15164).
T12 construct: T7 phage strains displaying bromodomains were grown in parallel; host or cells: T7 phage grown in E. coli host derived from BL21
T12 sequence (O15164 899-1004 limits assumed): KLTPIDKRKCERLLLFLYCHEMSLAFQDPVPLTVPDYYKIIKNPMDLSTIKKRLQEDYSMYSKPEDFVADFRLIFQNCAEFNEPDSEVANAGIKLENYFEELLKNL
Kind of experiment: BROMOscan Kd determination TRIM24 (Bromo.). The format is binding. The protocol: as §2

The target of another experiment is T13, BRD4(short-iso.) (Homo sapiens, UniProt O60885).
T13 construct: host or cells: T7 phage in E. coli derived from BL21
Briefly: BROMOscan Kd determination BRD4(short-iso.). The format is binding. The protocol:
as §2

For a further experiment, the target named is T14, SMARCA4 (Homo sapiens, UniProt P51532).
T14 construct: T7 phage strains displaying bromodomains were grown in parallel; host or cells: T7 phage grown in E. coli host derived from BL21
T14 sequence (P51532 1453-1564 limits assumed): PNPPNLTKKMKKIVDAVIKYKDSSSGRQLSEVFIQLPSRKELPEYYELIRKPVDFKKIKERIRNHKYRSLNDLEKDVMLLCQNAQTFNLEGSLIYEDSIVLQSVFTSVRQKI
Kind of experiment: BROMOscan Kd determination SMARCA4. The format is binding. The protocol: as §2

Another experiment addresses T15, BRD8(1) (Homo sapiens, UniProt Q9H0E9).
T15 construct: T7 phage strains displaying bromodomains were grown; host or cells: T7 phage in E. coli derived from BL21
Kind of experiment: BROMOscan Kd determination BRD8(1). It counts as binding. The protocol:
as §2

T11 sequence (O15164 824-1006 limits assumed): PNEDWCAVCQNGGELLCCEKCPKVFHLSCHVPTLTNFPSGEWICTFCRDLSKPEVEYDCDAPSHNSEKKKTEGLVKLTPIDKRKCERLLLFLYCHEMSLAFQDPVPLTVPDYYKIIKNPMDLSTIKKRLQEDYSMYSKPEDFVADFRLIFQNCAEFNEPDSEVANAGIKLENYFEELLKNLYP
T1 sequence (Q86U86 177-287 limits assumed): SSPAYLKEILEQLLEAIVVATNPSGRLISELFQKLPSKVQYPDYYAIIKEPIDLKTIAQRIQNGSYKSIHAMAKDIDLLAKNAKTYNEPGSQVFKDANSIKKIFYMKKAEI
T15 sequence (Q9H0E9 706-811 limits assumed): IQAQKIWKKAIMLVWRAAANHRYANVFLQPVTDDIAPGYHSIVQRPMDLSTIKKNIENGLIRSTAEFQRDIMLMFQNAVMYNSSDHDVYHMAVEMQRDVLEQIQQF
T8 sequence (Q15059 306-415 limits assumed): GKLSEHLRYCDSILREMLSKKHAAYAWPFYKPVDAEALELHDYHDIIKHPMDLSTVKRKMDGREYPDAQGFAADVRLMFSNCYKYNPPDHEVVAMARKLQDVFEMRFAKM

In the case of `COc1ccc(S(=O)(=O)N2CCOCC2)cc1NC(=O)c1[nH]c(C)c2c1CCCCC2=O` [Compound 13, N-(2-methoxy-5-(morpholinosulfonyl)phenyl)-3-methyl-4-oxo-2,4,5,6,7,8-hexahydrocyclohepta[c]pyrrole-1-carboxamide], the “% Ctrl @ 10 000 nM PBRM1(2)” value at PBRM1(2) amounted to 75 % Ctrl. Also, at FALZ, the “% Ctrl @ 10 000 nM FALZ” value came out at 6.8 % Ctrl. In the experiment on HL-60 cells, this compound had a GI50HL60 of 0.17 µM. Also, the “% Ctrl @ 10 000 nM CECR2” value at CECR2 came to 1.3 % Ctrl. Further, the “% Ctrl @ 10 000 nM BRD3(1)” value at BRD3(1) is reported as 0.05 % Ctrl. For the same compound, the “% Ctrl @ 10 000 nM PBRM1(5)” value on PBRM1(5) is given as 90 % Ctrl. Moreover, the “% Ctrl @ 10 000 nM ATAD2B” value at ATAD2B is 97 % Ctrl. In addition, the “% Ctrl @ 10 000 nM ATAD2A” value on ATAD2A stood at 94 % Ctrl. Further, the “% Ctrl @ 10 000 nM BRD3(2)” value on BRD3(2) came to 0 % Ctrl. The “% Ctrl @ 10 000 nM CREBBP” value at CREBBP was 4.7 % Ctrl. In addition, the “% Ctrl @ 10 000 nM BRD9” value at BRD9 is 0 % Ctrl.

`Cc1[nH]c(-c2cc(N)ccc2Cl)c2c1C(=O)CCCC2` [Compound 23]: the Kd (commonly the free concentration of one partner at which half of the binding sites on the other are occupied at equilibrium, for simple one-to-one binding) at TRIM24(PHD, Bromo) is 5.3 µM; on TRIM24 (Bromo.) it was 1.4 µM; at BRD4(short-iso.) it was 0.18 µM; at SMARCA4 it was over 10 µM; on BRD8(1), 2.6 µM.
